The record followed here is patent publication US10703757B2, “Compounds and methods for CDK8 modulation and indications therefor” (Plexxikon Inc., priority 2016, dated 2020).

Experiment [1] relates to CDK8 (phosphorylation of STAT1 at serine 727 in A549 cells). The experiment in a line: Cell based Phospho-STAT1 assay (IFNγ-stimulated A549 cells, AlphaLISA). The conditions noted are these: Homo sapiens, A549, A549 cells, phospho-STAT1 after IFNγ stimulation. The method in brief:
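A549 cells given serial compound dilutions for 1 h at 37 °C, then stimulated with IFNγ at 10 ng/mL final for 30 min. Lysate STAT1 Ser727 phosphorylation measured by AlphaLISA; % inhibition vs stimulated/unstimulated DMSO controls, IC50 by nonlinear regression.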

Experiment [2] relates to CDK8 (TCF/LEF luciferase reporter in HCT116 cells). The experiment in a line: Cell based TCF/LEF reporter assay (HCT116+TCF/LEF luciferase). The conditions noted are these: Homo sapiens, HCT-116, 24 h. The procedure, abridged: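 HCT116 cells stably carrying a TCF/LEF-luciferase reporter (endogenous mutant β-catenin), seeded overnight, then exposed to serial compound dilutions for 24 h at 37 °C. Luminescence normalized to CellTiter-Fluor viability signal. % inhibition relative to DMSO and 10 uM CCT251545 controls, with IC50 from nonlinear regression.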

By IC50 is commonly meant the concentration needed to halve the response being measured. Higher therefore signals weaker potency in that assay.

On to `N#CC1CC=C(c2nccn3ncc(-c4ccc(OCCCN5CCOCC5)cc4)c23)CC1` (stereo not shown) [Compound P-0130, 4-[3-[4-(3-morpholinopropoxy)phenyl]pyrazolo[1,5-a]pyrazin-4-yl]cyclohex-3-ene-1-carbonitrile], for which the IC50 in experiment [1] and in experiment [2] was 0.1 to 100 nM each time.

In the case of `Cn1cc(C#Cc2cnc3cccc(N4CCC(C(N)=O)C4)n23)cn1` (stereo not shown) [Compound P-0241, 1-(3-((1-methyl-1H-pyrazol-4-yl)ethynyl)imidazo[1,2-a]pyridin-5-yl)pyrrolidine-3-carboxamide], the IC50 in experiment [1] and in experiment [2] was 100 to 1000 nM throughout.

For the compound `N#CC1CCN(c2cccn3ncc(-c4ccc(-n5cccn5)cc4)c23)CC1` [Compound P-0363, 1-(3-(4-(1H-pyrazol-1-yl)phenyl)pyrazolo[1,5-a]pyridin-4-yl)piperidine-4-carbonitrile], the IC50 in experiment [1] and in experiment [2] was 0.1 to 100 nM each time.

Regarding `N#CC1CC=C(c2c(-c3ccc4c(c3)C(=O)NC4)cnc3[nH]ccc23)CC1` (stereo not shown) [Compound P-0207, 4-(5-(3-oxoisoindolin-5-yl)-1H-pyrrolo[2,3-b]pyridin-4-yl)cyclohex-3-ene-1-carbonitrile], the IC50 in experiment [1] was 1000 to 10000 nM; in experiment [2], 100 to 1000 nM.

For the compound `CC(C)(O)Cn1ncc2cc(-c3cnn4ccnc(C#CC(C)(C)C(N)=O)c34)ccc21` [Compound P-0091, 4-(3-(1-(2-hydroxy-2-methylpropyl)-1H-indazol-5-yl)pyrazolo[1,5-a]pyrazin-4-yl)-2,2-dimethylbut-3-ynamide], the IC50 in experiment [1] and in experiment [2] was 0.1 to 100 nM each time.

On to `Cc1cc(-c2cnn3ccnc(C4CCC(C#N)CC4)c23)ccc1-c1cnn(CC(C)(C)O)c1` (stereo not shown) [Compound P-0025, (1s,4s)-4-(3-(4-(1-(2-hydroxy-2-methylpropyl)-1H-pyrazol-4-yl)-3-methylphenyl)pyrazolo[1,5-a]pyrazin-4-yl)cyclohexane-1-carbonitrile], for which the IC50 in experiment [1] and in experiment [2] was 0.1 to 100 nM in each case.

Turning to `CS(=O)(=O)c1ccc(-c2cnn3cccc(C4=CCC(C#N)CC4)c23)cc1F` (stereo not shown) [Compound P-0126, 4-(3-(3-fluoro-4-(methyl-sulfonyl)phenyl)pyrazolo[1,5-a]pyridin-4-yl)cyclohex-3-ene-1-carbonitrile], the half-inhibitory concentration (IC50) in experiment [1] was 0.1 to 100 nM; in experiment [2] it was 100 to 1000 nM.

For the compound `CC(C)(O)Cn1cc(-c2ccc(-c3cnc4[nH]ccc4c3C3=CCC(C#N)CC3)cc2)cn1` (stereo not shown) [Compound P-0332, 4-(5-(4-(1-(2-hydroxy-2-methylpropyl)-1H-pyrazol-4-yl)phenyl)-1H-pyrrolo[2,3-b]pyridin-4-yl)cyclohex-3-ene-1-carbonitrile], the IC50 in experiment [1] and in experiment [2] was 0.1 to 100 nM throughout.

For the compound `N#CC1CC=C(c2nccn3ncc(-c4ccc(OCCOC5CCOCC5)cc4)c23)CC1` (stereo not shown) [Compound P-0146, 4-(3-(4-(2-((tetrahydro-2H-pyran-4-yl)oxy)ethoxy)phenyl)pyrazolo[1,5-a]pyrazin-4-yl) cyclohex-3-ene-1-carbonitrile], the IC50 in experiment [1] and in experiment [2] was 0.1 to 100 nM throughout.

As to `Cn1cc(-c2ccc(-c3cnc4[nH]ccc4c3N3CCC(C#N)CC3)cc2)cn1` [Compound P-0421, 1-(5-(4-(1-methyl-1H-pyrazol-4-yl)phenyl)-1H-pyrrolo[2,3-b]pyridin-4-yl)piperidine-4-carbonitrile], the IC50 in experiment [1] and in experiment [2] was 0.1 to 100 nM in each case.

For `N#CC1CCN(c2cccn3ncc(-c4ccc(C(=O)N5CCCC5)cc4)c23)CC1` [Compound P-0257, 1-(3-(4-(pyrrolidine-1-carbonyl)phenyl)pyrazolo[1,5-a]pyridin-4-yl)piperidine-4-carbonitrile], the IC50 in experiment [1] and in experiment [2] was 100 to 1000 nM in each case.

For the compound `CC(C)(O)Cn1ncc2cc(-c3cnn4ccnc(C5=CCC(C#N)CC5)c34)ccc21` (stereo not shown) [Compound P-0111, 4-(3-(1-(2-hydroxy-2-methylpropyl)-1H-indazol-5-yl)pyrazolo[1,5-a]pyrazin-4-yl)cyclohex-3-ene-1-carbonitrile], the IC50 in experiment [1] and in experiment [2] was 0.1 to 100 nM each time.

In the case of `N#CC1CC=C(c2nccn3ncc(-c4ccc(OCc5ccccc5)c(F)c4)c23)CC1` (stereo not shown) [Compound P-0039, 4-(3-(4-(benzyloxy)-3-fluorophenyl)pyrazolo[1,5-a]pyrazin-4-yl)cyclohex-3-ene-1-carbonitrile], the IC50 in experiment [1] and in experiment [2] was 100 to 1000 nM each time.

Turning to `COc1ccc2cc(-c3cnn4cccc(C5=CCC(C#N)CC5)c34)ccc2n1` (stereo not shown) [Compound P-0242, 4-(3-(2-methoxyquinolin-6-yl)pyrazolo[1,5-a]pyridin-4-yl)cyclohex-3-ene-1-carbonitrile], the IC50 in experiment [1] and in experiment [2] was 0.1 to 100 nM throughout.

For the compound `N#CC1CCN(c2cccn3ncc(-c4cccc(OCc5ccccc5)c4)c23)CC1` [Compound P-0252, 1-(3-(3-(benzyloxy)phenyl)pyrazolo[1,5-a]pyridin-4-yl)piperidine-4-carbonitrile], the IC50 in experiment [1] and in experiment [2] was 1000 to 10000 nM each time.

`CC1=NC2(CCN(c3cccc4ncc(C#Cc5cnn(C)c5)n34)CC2)C(=O)N1` [Compound P-0276, 2-methyl-8-(3-((1-methyl-1H-pyrazol-4-yl)ethynyl)imidazo[1,2-a]pyridin-5-yl)-1,3,8-triazaspiro[4.5]dec-1-en-4-one]: the IC50 in experiment [1] and in experiment [2] was 1000 to 10000 nM each time.

Take `CS(=O)(=O)CCn1cc(-c2ccc(-c3cnn4ccnc(C5CCC(C#N)CC5)c34)cc2)cn1` (stereo not shown) [Compound P-0015, (1s,4s)-(3-(4-(1-(2-(methylsulfonyl)ethyl)-1H-pyrazol-4-yl)phenyl)pyrazolo[1,5-a]pyrazin-4-yl)cyclohexane-1-carbonitrile]: the IC50 in experiment [1] and in experiment [2] was 0.1 to 100 nM throughout.

Take `N#CC1CC=C(c2nccn3ncc(-c4ccc5c(cnn5C(F)F)c4)c23)CC1` (stereo not shown) [Compound P-0114, 4-(3-(1-(difluoromethyl)-1H-indazol-5-yl)pyrazolo[1,5-a]pyrazin-4-yl)cyclohex-3-ene-1-carbonitrile]: the IC50 in experiment [1] and in experiment [2] was 0.1 to 100 nM throughout.

As for `Cc1ccc2cc(-c3cnn4ccnc(C#CC(C)(C)C(N)=O)c34)ccc2n1` [Compound P-0118, 2,2-dimethyl-4-(3-(2-methylquinolin-6-yl)pyrazolo[1,5-a]pyrazin-4-yl)but-3-ynamide], the IC50 in experiment [1] and in experiment [2] was 0.1 to 100 nM each time.

For `N#CC1CC=C(c2cccn3ncc(-c4ccc(Cl)cc4)c23)CC1` (stereo not shown) [Compound P-0188, 4-(3-(4-chlorophenyl)pyrazolo[1,5-a]pyridin-4-yl)cyclohex-3-ene-1-carbonitrile], the IC50 in experiment [1] and in experiment [2] was 0.1 to 100 nM throughout.

As for `N#CC1CC=C(c2nccn3ncc(-c4ccc(-c5cnn(CCN6CCOCC6)c5)cc4)c23)CC1` (stereo not shown) [Compound P-0051, 4-(3-(4-(1-(2-morpholinoethyl)-1H-pyrazol-4-yl)phenyl)pyrazolo[1,5-a]pyrazin-4-yl)cyclohex-3-ene-1-carbonitrile], the IC50 in experiment [1] and in experiment [2] was 0.1 to 100 nM throughout.

As to `CC(C)(O)C#Cc1cccn2ncc(-c3ccc(-c4cccnc4)cc3)c12` [Compound P-0237, 2-methyl-4-(3-(4-(pyridin-3-yl)phenyl)pyrazolo[1,5-a]pyridin-4-yl)but-3-yn-2-ol], the IC50 in experiment [1] and in experiment [2] was 0.1 to 100 nM throughout.

Take `Cc1ccc2cc(-c3cnn4cccc(C5=CCC(C#N)CC5)c34)ccc2n1` (stereo not shown) [Compound P-0223, 4-(3-(2-methylquinolin-6-yl)pyrazolo[1,5-a]pyridin-4-yl)cyclohex-3-ene-1-carbonitrile]: the IC50 in experiment [1] and in experiment [2] was 0.1 to 100 nM in each case.

`O=C(O)C1CC=C(c2cccn3ncc(-c4ccc(-n5cccn5)cc4)c23)CC1` (stereo not shown) [Compound P-0213, 4-(3-(4-(1H-pyrazol-1-yl)phenyl)pyrazolo[1,5-a]pyridin-4-yl)cyclohex-3-ene-1-carboxylic acid]: the half-inhibitory concentration (IC50) in experiment [1] and in experiment [2] was 1000 to 10000 nM in each case.

Regarding `N#CC1CCN(c2cccn3ncc(-c4ccc(OCC5CCCCO5)cc4)c23)CC1` (stereo not shown) [Compound P-0264, 1-(3-(4-((tetrahydro-2H-pyran-2-yl)methoxy)phenyl)pyrazolo[1,5-a]pyridin-4-yl)piperidine-4-carbonitrile], the IC50 in experiment [1] and in experiment [2] was 0.1 to 100 nM throughout.

With `N#CC1CCN(c2cccn3ncc(-c4cccc(OCC(F)(F)F)c4)c23)CC1` [Compound P-0251, 1-(3-(3-(2,2,2-trifluoro-ethoxy)phenyl)pyrazolo[1,5-a]pyridin-4-yl)piperidine-4-carbonitrile], the IC50 in experiment [1] and in experiment [2] was 1000 to 10000 nM throughout.

In the case of `N#CC1CC=C(c2cccn3ncc(-c4ccc(OCCN5CCCCC5)cc4)c23)CC1` (stereo not shown) [Compound P-0181, 4-(3-(4-(2-(piperidin-1-yl)ethoxy)phenyl)pyrazolo[1,5-a]pyridin-4-yl)cyclohex-3-ene-1-carbonitrile], the IC50 in experiment [1] and in experiment [2] was 0.1 to 100 nM in each case.

Regarding `N#CC1CC=C(c2cccn3ncc(-c4ccc5ncccc5c4)c23)CC1` (stereo not shown) [Compound P-0127, 4-(3-(quinolin-6-yl)pyrazolo[1,5-a]pyridin-4-yl)cyclohex-3-ene-1-carbonitrile], the IC50 in experiment [1] and in experiment [2] was 0.1 to 100 nM each time.

In the case of `COc1ccc2cc(-c3cnn4cccc(N5CCC6(CCNC6=O)CC5)c34)ccc2n1` [Compound P-0167, 8-(3-(2-methoxyquinolin-6-yl)pyrazolo[1,5-a]pyridin-4-yl)-2,8-diazaspiro[4.5]decan-1-one], the half-maximal inhibitory concentration (IC50) in experiment [1] and in experiment [2] was 0.1 to 100 nM throughout.
